We go through 2 molecules from patent US11185539B2 (priority 2017, dated 2021).

Data set [1] has as its system C57BL/6N mice with angiotensin II-induced diastolic heart failure. The data set can be described thus: Echocardiography in therapeutic murine model (angiotensin II for eight weeks). It is filed as in vivo. The following applies: therapeutic: Bufalin 0.5 mg/kg i.p. every other day from week 2; week 8. How it is done:
(§1) Diastolic heart failure (HF) was induced in C57BL/6N mice via implantation of angiotensin II filled minipumps (see Example 3). In difference to Example 3, C57BL/6N mice were infused with 3 mg/kg/day angiotensin II by subcutaneously implanted minipumps for eight weeks.
(§2) Next, Bufalin or Lycorine (dissolved in DMSO) or the solvent DMSO alone (as control) were injected intraperitoneally (i.p) every other day until the endpoint, starting two weeks after start of angiotensin II-infusion (see FIG. 11).
Diastolic HF was induced in C57BL/6 mice and Bufalin or Lycorine were injected as indicated in Example 5. Eight weeks after the operation, cardiac function of the mice was assessed echocardiographically (n=5-12 per group) by treating the mice with said compounds (Bufalin: 0.5 mg/kg, Lycorine 4.5 mg/kg).
A decrease of the Myocardial Performance Index (MPI) (see FIG. 12B) as well as a reduction of the isovolumetric relaxation time (IVRT) (see FIG. 12C) and an increase in E to A peak ratio (E/A) (the ratio of the early (E) to late (A) ventricular filling velocities as a marker of the function of the left ventricle of the heart) (see FIG. 12D) indicate improvement of both global (MPI) and diastolic (IVRT and E/A) function of the heart, in particular for Bufalin.

Data set [2] has the same test system. The data set can be described thus: Picrosirius-red collagen staining of heart sections, therapeutic model (eight weeks). It is filed as in vivo. The following applies: therapeutic: i.p. every other day from week 2 of angiotensin II; week 8. The procedure: as §1, §2
Additionally, eight weeks after the operation, histological sections of the hearts were stained for collagen using picrosirius-red (n=7-12 per group) after treatment with Bufalin or Lycorine.

The test system is the same in data set [3]. Nature of the data set: Hemodynamic measurement (MILLAR), therapeutic model. The format is in vivo. Conditions: therapeutic: Bufalin 0.5 mg/kg, Lycorine 4.5 mg/kg; week 8. The procedure: as §1, §2
Diastolic HF was induced in C57BL/6 mice and Bufalin or Lycorine were injected as indicated in Example 5. Eight weeks after the operation, hemodynamic measurements of the mice were assessed (n=6-7 per group) by treating the mice with said compounds (Bufalin: 0.5 mg/kg, Lycorine 4.5 mg/kg).

Data set [4] has the same test system. Nature of the data set: Tissue Doppler Imaging, therapeutic model. The format is in vivo. Conditions: therapeutic: Bufalin 0.5 mg/kg; week 8; vs AngII solvent control. The procedure:
as §1, §2
(§3) Diastolic HF was induced in C57BL/6 mice and Bufalin were injected as indicated in Example 5. Eight weeks after the operation, cardiac function of the mice was assessed echocardiographically (n=3-6 per group) by treating the mice with said compounds (Bufalin: 0.5 mg/kg)
Echocardiographic measurements were performed using Tissue Doppler Imaging (TDI), which refers to a medical ultrasound technology mainly used in Echocardiography that measures the velocity of the heart muscle or myocardium through the phases of one or more heartbeats by the Doppler effect (frequency shift) of the reflected ultrasound (see FIG. 14).

The test system is the same in data set [5]. Nature of the data set: 2-dimensional speckle-tracking strain echocardiography, therapeutic model. Conditions: therapeutic: Bufalin 0.5 mg/kg; week 8. The format is in vivo. How it is done:
as §1, §2, §3
Additionally, myocardial deformation was assessed using strain imaging such as 2-dimensional speckle-tracking strain echocardiography. Global longitudinal strain (GLS), a measure for the deformation of the myocardium, which decreases when diastolic dysfunction is present, is depicted in FIG. 15.

The test system of data set [6] is miRNA expression of HCFs. Nature of the data set: High-throughput miRNA sequencing in HCFs. The format is cell-based, human. Conditions: 1 μM, 24 h, vs DMSO. The procedure: HCFs were treated with 1 μM Bufalin for 24 h as indicated, total RNA was isolated and subjected to high-throughput miRNA sequencing profiling via deep sequencing, DMSO refers as a control. To perform a high-throughput miRNA sequencing the Illumine® TruSeq® Small RNA technology is used to prepare various RNA species which is known to the person skilled in the art. In view of said technology, advantages of the natural structure common to most known microRNA molecules are taken. Most mature miRNAs have a 5′-phosphate and a 3′-hydroxyl group as a result of the cellular pathway used to create them. Because of this, the Illumina adapters which are used are directly and specifically ligated to miRNAs. Thus, libraries for subsequent cluster generation are prepared, using total RNA as input. Further, adapter ligation, reverse transcription, PCR amplification, and pooled gel purification to generate a library product is applied as it is known to the skilled person in the art. […] Data represent pooled triplicates from 3 independent experiments. Representative experiment shown; the same experiment was performed with all the anti-fibrotic natural substances identified (see FIG. 16).

For data set [7], the system named is kidney and liver. Nature of the data set: Kidney and liver histology (HE, PAS), therapeutic model, eight weeks. Conditions: therapeutic approach; Bufalin 0.5, Lycorine 4.5 mg/kg; eight weeks after the operation. The format is in vivo, mice. How it is done:
HF was induced in mice (Example 5) and Bufalin (0.5 mg/kg) as well as Lycorine (4.5 mg/kg) were injected as indicated in Example 5. Eight weeks after the operation, kidneys and livers were subjected to histological assessment via Hematoxylin and Eosin (HE) and Periodic acid-Schiff (PAS) stain (n=4 per group).

The nature of data set [8]: Myocardial and plasma concentrations, LC and QTOF-MS. The format is in vivo, mice. Conditions: 9 minutes after injection; Bufalin 0.5, Lycorine 4.5 mg/kg. The procedure: Plasma and hearts of C57BL/6N mice were harvested 9 minutes after injection with natural substances Bufalin (0.5 mg/kg) or Lycorine (4.5 mg/kg) (dissolved in DMSO). After extraction of the substances, Bufalin and Lycorine were quantified by liquid chromatography (LC) and quadrupole time-of-flight mass spectrometry (QTOF-MS) (see FIG. 30).

Data set [9] concerns rat renal fibroblast cell line NRK49F. Nature of the data set: Proliferation of rat renal fibroblast cell line NRK49F, BrdU-ELISA. It is filed as cell-based. The following applies: 24 h; for proliferation of renal fibroblasts (NRK49F): Lycorine 1, 5, 10 μM, Bufalin 0.1, 1, 10 μM. The procedure:
(§4) Cells of the rat renal fibroblast cell line NRK49F and primary human pulmonary fibroblasts (HPFs) were treated with Lycorine (1 μM, 5 μM and 10 μM) or Bufalin (0.1 μM, 1 μM, 10 μM) for 24 h and proliferation of respective fibroblasts was measured by BrdU-ELISA (see FIG. 39).
On the technique in general: ELISA stands for enzyme-linked immunosorbent assay.

For data set [10], the system named is primary human pulmonary fibroblasts (HPFs). The data set can be described thus: Proliferation of primary human pulmonary fibroblasts, BrdU-ELISA. The format is cell-based. The following applies: 24 h; for proliferation of pulmonary fibroblasts (HPFs): Lycorine 1, 5, 10 μM, Bufalin 0.1, 1, 10 μM. How it is done:
as §4

As to `C[C@]12CC[C@H](O)C[C@H]1CC[C@@H]1[C@@H]2CC[C@]2(C)[C@@H](c3ccc(=O)oc3)CC[C@]12O` [Bufalin], in data set [1], the “E to A peak ratio” value is given as “increase”, the “Myocardial Performance Index (MPI)” value is on record as “decrease” and the “isovolumetric relaxation time (IVRT)” value is listed as “reduction”. Besides, the “collagen deposition in heart sections (picrosirius-stained areas)” value in data set [2] is recorded as “reduction of collagen deposition”. For the same molecule, the “end-diastolic pressure-volume relationship (EDPVR)” value in [3] is “significant reduction”. Further, in data set [4], the “velocity of tissue motion in diastole (E′)” value was “recovers the velocity of tissue motion in diastole”. Besides, in [5], the “ejection fraction (EF)” value is “remained comparable in all tested groups” and the “global longitudinal strain (GLS)” value is given as “significant reversal of the downshift”. In data set [6], the “number of miRNAs downregulated in HCFs” value is 33 and the “number of miRNAs upregulated in HCFs” value was determined as 14. The “kidney and liver morphology (HE, PAS)” value in [7] is “does not induce necrosis, inflammation or any morphological changes”. In addition, the “levels in the myocardium compared to the plasma” value in data set [8] is on record as “higher levels in (A) the myocardium as compared to (B) the plasma”. The “proliferation of renal fibroblasts (NRK49F)” value in [9] is “significantly inhibits only proliferation of pulmonary fibroblasts”. Besides, in data set [10], the “most effective amount (pulmonary fibroblasts)” value was 10 µM and the “proliferation of pulmonary fibroblasts (HPFs)” value is “significantly inhibits”.

In the case of `O[C@H]1[C@H]2c3cc4c(cc3CN3CCC(=C[C@@H]1O)[C@H]23)OCO4` [Lycorine], in [2], the “collagen deposition in heart sections (picrosirius-stained areas)” value is “reduction of collagen deposition”. Further, the “end-diastolic pressure-volume relationship (EDPVR)” value in data set [3] is “significant reduction”. Besides, the “kidney and liver morphology (HE, PAS)” value in [7] is “does not induce necrosis, inflammation or any morphological changes”. The “levels in the myocardium compared to the plasma” value in [8] is reported as “higher levels in (A) the myocardium as compared to (B) the plasma”. Also, in [9], the “most effective amount (renal fibroblasts)” value was determined as 10 µM and the “proliferation of renal fibroblasts (NRK49F)” value is on record as “significantly inhibits proliferation”. Besides, in data set [10], the “most effective amount (pulmonary fibroblasts)” value came to 10 µM and the “proliferation of pulmonary fibroblasts (HPFs)” value was “significantly inhibits proliferation”.
